Measurements: patent publication US9308215B2, “Avermectins and milbemycins as anti-mycobacterial agents” (priority 2013, dated 2016)
≈ marks a conversion by molar mass, not a printed value. Read-outs that look alike come from different tables or passages of the source.

Assays:
A. baumannii = assay: microbe, parasite or virus in culture; assay type: cell-based, Acinetobacter baumannii; conditions: strain ATCC 1960, WT
[1] = cited from earlier work; for Cmax / AUC / T½: Humans
[2] = Horses, 200 μg/kg oral; cited from earlier work
E. coli = assay: microbe, parasite or virus in culture; assay type: cell-based, Escherichia coli; conditions: strain O157:H7, WT
M. microti = assay: microbe, parasite or virus in culture; assay type: cell-based
M. chelonae = assay: MIC against mycobacterial species; assay type: cell-based; conditions: M. chelonae
M. phlei = assay: MIC against mycobacterial species; assay type: cell-based; conditions: M. phlei
M. bovis BCG = assay: microbe, parasite or virus in culture; assay type: cell-based, Mycobacterium bovis; conditions: strain BCG Pasteur, WT
M. gordonae = assay: MIC against mycobacterial species; assay type: cell-based; conditions: M. gordonae 324
[3] = Dogs, 250 μg/kg oral; cited from earlier work
[4] = mice; cited from earlier work
[5] = tested on: M. tuberculosis H37Rv and mc25857 (an MDR isolate); assay type: cell-based, Mycobacterium tuberculosis; conditions: in vitro against M. tuberculosis, survival kinetics
M. tuberculosis [6] = assay: microbe, parasite or virus in culture; assay type: cell-based, Mycobacterium tuberculosis
K. rhizophila = assay: microbe, parasite or virus in culture; assay type: cell-based, Kocuria rhizophila; conditions: WT
S. aureus = assay: microbe, parasite or virus in culture; assay type: cell-based, Staphylococcus aureus; conditions: strain ATCC 25923, WT
M. avium = assay: MIC against mycobacterial species; assay type: cell-based, Mycobacterium avium
[7] = tested on: representative Gram-positive and Gram-negative bacteria; assay type: cell-based
M. tuberculosis Erdman [8] = assay: Mouse in vivo TB model, acute (GKO); conditions: for Toxicity / Log10 cfu reduction (lungs): Acute (GKO), Erdman; for Log10 cfu reduction (lungs): 50/35/15 H2O/PEG300/PG
Method: Mice were low-dose aerosol infected (50-100 bacteria). In the acute model, immune compromised mice were left untreated for 13 days to allow the infection to become established before 9 days of consecutive drug therapy was initiated. Drugs were administered by oral gavage. Log10 cfu reductions in the lungs were compared to untreated group. Rifampin was included as an internal control. An ordinary one-way ANOVA Bonferroni's multiple comparisons test was used to calculate p values. A p value<0.05 indicates statistically significant differences compared to the control group (vehicle).
Using an acute TB model, immune compromised mice were low-dose aerosol infected and then left untreated for 13 days to allow the infection to become established before 9 days of consecutive drug therapy was initiated. Drugs were administered orally and Log10 cfu reductions in the lungs were compared to and untreated group (vehicle) to rifampin treatment. […] Rifampicin was included as control.

[9] = ivermectin: extra-label use; selamectin, moxidectin: therapeutic doses; cited from earlier work
[10] = 0.2 mg/kg oral, cited from earlier work
M. aurum = assay: MIC against mycobacterial species; assay type: cell-based; conditions: M. aurum
M. smegmatis = assay: microbe, parasite or virus in culture; assay type: cell-based, Mycobacterium smegmatis; conditions: strain mc^2155, WT
M. intracellulare = assay: MIC against mycobacterial species; assay type: cell-based
M. tuberculosis Erdman [11] = assay: Mouse in vivo TB model, chronic (Balb/C); conditions: 10 mg/kg bw PO
R. jostii = assay: microbe, parasite or virus in culture; assay type: cell-based, Rhodococcus jostii; conditions: strain RHA1, WT
P. aeruginosa = assay: microbe, parasite or virus in culture; assay type: cell-based, Pseudomonas aeruginosa; conditions: strain PA01 (H103), WT
[12] = single dose, clinical studies, cited from earlier work
S. lividans = assay: microbe, parasite or virus in culture; assay type: cell-based, Streptomyces lividans; conditions: strain 1326, WT
M. tuberculosis [13] = conditions: Jayaram et al. 2003; cited from earlier work
[14] = less sensitive strains CI15072, CI12081, BC-MDR2, BC-DS4 and BC-DS5

## CC[C@H](C)[C@H]1O[C@]2(CC[C@@H]1C)C[C@@H]1C[C@@H](C/C=C(\C)[C@@H](O[C@H]3C[C@H](OC)[C@@H](O[C@H]4C[C@H](OC)[C@@H](O)[C@H](C)O4)[C@H](C)O3)[C@@H](C)/C=C/C=C3\CO[C@@H]4[C@H](O)C(C)=C[C@@H](C(=O)O1)[C@]34O)O2 [Ivermectin]
A. baumannii
  In vitro MIC90: >256 µg/mL
[1]; 12 mg (165 μg/kg) oral
  Cmax: 47 ng/mL
[1]; 30 mg (347-541 μg/kg) oral
  AUC: 2819 ng·h/mL
  Cmax: 85 ng/mL
  T½: 19 h
[1]; 30 mg (fed) oral
  AUC: 4564 ng·h/mL
  Cmax: 260 ng/mL
  T½: 15 h
[1]; 90 mg (1031-1466 μg/kg) oral
  AUC: 2910 ng·h/mL
  Cmax: 158 ng/mL
  T½: 19 h
[1]; 120 mg (1404-2000 μg/kg) oral
  AUC: 4547 ng·h/mL
  Cmax: 247 ng/mL
  T½: 19 h
[1]; healthy volunteers, 120 mg
  plasma concentrations: ca. 0.25 μg/mL
[1]; standard dose of 12 mg
  maximal concentration in plasma: ca. 50 ng/mL
[2]
  AUC: 3184 ng·h/mL
  Cmax: 44 ng/mL
  T½: 20 h
E. coli
  In vitro MIC90: >256 µg/mL
M. microti; M. microti 1601
  MIC: 4 µg/mL (≈ 4.57 µM)
M. microti; M. microti 1608
  MIC: 256 µg/mL (≈ 293 µM)
M. chelonae
  MIC: 4 µg/mL (≈ 4.57 µM)
M. phlei
  MIC: 32 µg/mL (≈ 36.6 µM)
M. bovis BCG
  In vitro MIC90: 4 µg/mL
M. gordonae
  MIC: 4 µg/mL (≈ 4.57 µM)
[3]
  AUC: 5600 ng·h/mL
  Cmax: 132 ng/mL
  T½: 80 h
[4]
  LD50: 25 mg/kg body weight
[5]
  bactericidal or bacteriostatic: Bactericidal
M. tuberculosis [6]; [14]
  MIC50: < 8 µg/mL
  MIC90: 24 µg/mL (≈ 27.4 µM)
M. tuberculosis [6]; strain 1254, WT
  In vitro MIC90: 8 µg/mL
M. tuberculosis [6]; strain BC-DS1 (drug-susceptible)
  In vitro MIC90: 4 to 16 µg/mL
M. tuberculosis [6]; strain BC-DS3 (drug-susceptible)
  In vitro MIC90: 8 to 16 µg/mL
M. tuberculosis [6]; strain BC-DS4
  value in parentheses in MIC90 column (MIC50): 8 µg/mL
M. tuberculosis [6]; strain BC-DS4 (drug-susceptible)
  In vitro MIC90: 64 µg/mL
M. tuberculosis [6]; strain BC-DS5
  value in parentheses in MIC90 column (MIC50): 8 µg/mL
M. tuberculosis [6]; strain BC-DS5 (drug-susceptible)
  In vitro MIC90: > 128 µg/mL
M. tuberculosis [6]; strain BC-MDR2
  value in parentheses in MIC90 column (MIC50): 8 µg/mL
M. tuberculosis [6]; strain CDC 1551, WT
  In vitro MIC90: 4 to 8 µg/mL
M. tuberculosis [6]; strain Erdman, WT
  In vitro MIC90: 8 µg/mL
M. tuberculosis [6]; strain H37Rv, WT
  In vitro MIC90: 6 µg/mL
K. rhizophila
  In vitro MIC90: >256 µg/mL
S. aureus
  In vitro MIC90: >256 µg/mL
M. avium; M. avium 702
  MIC: >256 µg/mL
M. avium; M. avium 715
  MIC: >256 µg/mL
M. avium; M. avium ATCC 25291
  MIC: >128 µg/mL
[7]
  Inhibitory effects: not observed
M. tuberculosis Erdman [8]; 5 and 10 mg/kg doses, oral, Erdman 107
  activity in vivo in acute TB model: did not show activity
M. tuberculosis Erdman [8]; 5 mg/kg bw PO
  Toxicity: None
  Log10 cfu reduction (lungs): 0.32 Log10 cfu
M. tuberculosis Erdman [8]; 10 mg/kg bw PO
  Toxicity: None
  Log10 cfu reduction (lungs): 0.4 Log10 cfu
[9]
  toxicity in dogs lacking MDR1 P-glycoprotein / homozygous MDR1 mutation: severe signs of neurotoxicity
[10]; Mouse (lung)
  Cmax: 20 ng/mL
[10]; Mouse (plasma)
  AUC: 573 ng·h/mL
  Cmax: 20 ng/mL
  T½: 9.3 h
M. aurum
  MIC: 2 µg/mL (≈ 2.29 µM)
M. smegmatis
  In vitro MIC90: 8 µg/mL
M. intracellulare; M. intracellulare 1403 ATCC35761
  MIC: 4 µg/mL (≈ 4.57 µM)
M. intracellulare; M. intracellulare 1403 Trudeau
  MIC: 4 µg/mL (≈ 4.57 µM)
M. intracellulare; M. intracellulare D673
  MIC: 8 µg/mL (≈ 9.14 µM)
M. intracellulare; M. intracellulare FM
  MIC: 8 µg/mL (≈ 9.14 µM)
M. tuberculosis Erdman [11]
  Toxicity: None
M. tuberculosis Erdman [11]; 50/35/15 H2O/PEG300/PG
  Log10 cfu reduction (lungs): −0.11 Log10 cfu
R. jostii
  In vitro MIC90: >256 µg/mL
P. aeruginosa
  In vitro MIC90: >256 µg/mL
[12]
  dose reported safe in humans: ≤ 120 mg
[12]; listed as ivermectin
  dose reported safe in humans: 120 mg
S. lividans
  In vitro MIC90: >256 µg/mL

## CO[C@H]1/C=C/O[C@@]2(C)Oc3c(C)c(O)c4c(O)c(c(/C=N/N5CCN(C)CC5)c(O)c4c3C2=O)NC(=O)/C(C)=C\C=C\[C@H](C)[C@H](O)[C@@H](C)[C@@H](O)[C@@H](C)[C@H](OC(C)=O)[C@@H]1C [Rifampin]
M. tuberculosis [13]
  AUC24/MIC value required for 1 log 10 CFU/ml reduction, relative to avermectins and milbemycins: more than 10 times higher
